Where “and” joins values, the source holds several entries; their conditions need not be identical. Equal entries are not always repeated.
System: ‘off’ period in subjects with PD
Assay: Single-dose reversal of 'off' period in subjects with PD, subcutaneous vs intra-nasal apomorphine
Format: in vivo, human
Settings: for Duration of ‘on’ response / Latency for ‘on’ response: s/c (subcutaneous), normal dose 2-5 mg, individual PD subjects 1-6
Text: The nasal powder formulation used in this study was in accordance with this invention prepared using the method of Method example 1 and comprised the following components:
Six subjects with PD complicated by motor fluctuations were studied, 5 male (mean age 64 years, range 57-70 years), […]. The mean duration of disease was 13 years (range 7-24 years). […] On each dosing day the subjects attended the clinic and their normal oral medication was withheld until an ‘off’ episode developed. Each subject then received the designated apomorphine dose (subcutaneous or nasal). The abbreviated Unified PD Rating Scale (UPDRS) was used to assess motor performance at regular intervals following each apomorphine dosing. The time for the ‘off’ period to be fully alleviated and the duration of this response were determined primarily by patient feedback and supported by clinical judgement and the UPDRS scores.

[1] = subcutaneous dosing 2-5 mg, mean of 6 subjects

CN1CCc2cccc3c2[C@H]1Cc1ccc(O)c(O)c1-3 [subcutaneous apomorphine, Apomorphine]
Duration of ‘on’ response (subcutaneous dose 2 mg): 75 min and 96 min | Latency for ‘on’ response (subcutaneous dose 2 mg): 20 min | Duration of ‘on’ response (subcutaneous dose 4 mg): 65 min and 48 min and 43 min | Latency for ‘on’ response (subcutaneous dose 4 mg): 14 min (2×) and 30 min | Duration of ‘on’ response (subcutaneous dose 5 mg): 46 min | Latency for ‘on’ response (subcutaneous dose 5 mg): 61 min | Mean duration of ‘on’ response [1]: 62 min | Mean latency of ‘on’ response [1]: 27 min | Range of latency of response (subcutaneous dosing 2-5 mg, range over 6 subjects): 14 to 61 min | Range of duration of response (subcutaneous dosing, range over 6 subjects): 43 to 96 min

Source: patent US20060147388A1, “Pharmaceutical compositions for nasal delivery” (priority 2003, published 2006)
